From patent publication US7049331B2, “1,2,4-thiadiazole derivatives as melanocortin receptor modulators” (Ortho-McNeil Pharmaceutical, Inc., priority 2001, dated 2006) come the findings set out here.

Each structure is given as a SMILES string.

One test relates to Cortical Cells. The test can be described thus: Neurite Cell Outgrowth Assay, cortical cells. It is filed as cell-based. To be noted: Rattus norvegicus; 50 nM; percent change over the vehicle response; NA = no change/not active. The source says:
(§1) Dissociated hippocampal and cortical cell cultures were established from embryonic day 18 rat fetuses as described by Mattson, M. P., Barger, S. W., Begley, J, and Mark, R. J., Methods Cell Biol., 1994, 46:[…]. Briefly, fetuses were removed via cesarean section from pregnant moms (Sprague-Dawley) and anesthetized with halothane according to the AVMA Panel on Euthanasia. Pups were decapitated and the brains were removed and placed in HEPES-buffered Hank's Balanced Salt solution (HBSS; Gibco). The hippocampi and cortices were dissected out and pooled according to tissue-type. Tissue was trypsinized for 15 min (1 mg/ml trypsin-HBSS; Worthington), rinsed with fresh HBSS, incubated in trypsin inhibitor (1 mg/ml; Sigma) for 5 min, rinsed again with fresh HBSS and then triturated in 1 ml fresh HBSS with a fire-polished glass pipette. Dissociated cells were seeded at 30,000 cells/well onto poly-D-lysine coated 96-well plates (Collaborative BioScience). Each well contained 100 μl of Eagle's Minimal Essential Media (MEM; Gibco) supplemented with 26 mM NaHCO3 (Sigma), 56 mM glucose (Sigma), 15 mM KCl (Sigma), 1 mM sodium pyruvate (Sigma), 1.1 mM L-glutamine (Sigma), 10% (v/v) heat-inactivated fetal bovine serum (Hyclone), and 0.001% gentamicin sulfate (Sigma) (pH 7.4). Cells were allowed to attach for 24 h in a humidified 37° C. 5% CO2 incubator before experimental treatment. The culture media was aspirated and exchanged with fresh media every 3 days.
(§2) Twenty-four hours after plating, cultures were treated with vehicle (PBS+0.1% BSA), alpha-melanocyte stimulating hormone (α-MSH) or test compound (diluted in DPBS). Each treatment condition was run in quadruplicate. On the third day in culture, the media was aspirated off and replaced with fresh media and test compound. At one week in culture, the cells were fixed with 10% phosphate-buffered formalin for 15 min, then rinsed with DPBS (Sigma) and placed in blocking serum for 30 min (horse serum; 1:50 dilution in DPBS; Vector Labs). The cultures were rinsed again with DPBS and then incubated in primary antibody for 2 hr (microtubule-associated protein-2 (MAP-2) is a selective marker for dendritic processes; anti-mouse monoclonal (Chemicon); 1:1000 dilution of MAP-2 in antibody diluent (Zymed)). Negative control wells were incubated in antibody diluent alone. Background signal was determined by blank wells (cell-free) incubated with or without antibody. Cultures were rinsed again with DPBS and then placed in fluorescein for 1 hr (FITC; anti-mouse IgG; rat adsorbed; 1:50 dilution in DPBS; Vector Labs). Cultures were rinsed a final time with DPBS and the plates were then read on a Cytofluor 4000 fluorescence plate reader. Neurite outgrowth was expressed as percent change from control (vehicle).
(§3) The data are expressed as percent change over the vehicle response. All compounds were screened at 50 nM. The abbreviation NA indicates no change/not active; the abbreviation ND indicates a compound not tested/response not determined.

Test [1] addresses T1, melanocortin MC-4 receptor (Homo sapiens, UniProt P32245).
T1 construct: purchased Receptor Biology Inc
The test can be described thus: MC-4 receptor binding (Filtration). To be noted: Filtration; for IC50: read-out: IC50 MC-4 (μM) (Filtration). The protocol:
The procedures described above for the melanocortin MC-4 receptor were repeated for the melanocortin MC-3 receptor. Following the procedures described, representative compounds of the present invention were tested for binding in the MC-4 and/or MC-3 assay, as listed in Table 4.

Test [2] concerns the target T1, melanocortin MC-4 receptor. The test can be described thus: Melanocortin MC-4 Receptor Binding Assay (SPA). The protocol: Melanocortin MC-4 Receptor Binding Assay Melanocortin [MC-4]-membrane [purchased from Receptor Biology Inc] was coupled to wheat germ agglutinin coated polyvinyl toluene-Scintillation Proximity Assay beads [purchased from Amersham Pharmacia Inc.] for 30 min at 25° C. Into each well of a 96-well Opti plate [purchased from Packard, Calif.], 2.5 μg of membrane and 0.25 mg of beads were mixed in a volume of 100 μL media. […] Test compounds (1.5 μL) at 1 mM in 30% DMSO-50 mM HEPES, pH 7.4 buffer was added to separate wells on the plate. Radioactive ligand ^125I-NDP-melanocyte stimulating hormone [NEN, 2000Ci/mmol] was added to each well (48.5 μL per well, 40 pM final concentration). The plate was then sealed and let stand for 16 hr at 25° C. NDP-Melanocyte stimulating hormone peptide and α-melanocyte stimulating hormone peptide [purchased from Palomar Research Inc, 1 μM] were used as reference inhibitor compounds to define non-specific binding (N). Total binding (T) was defined using 30% DMSO-50 mM HEPES, pH 7.4 buffer. Bound radioactivity for each well (Y), measured at counts per minute (cpm) was measured in a TopCount [Packard, Calif.]. Percent inhibition was calculated as: […] The procedures described above for the melanocortin MC-4 receptor were repeated for the melanocortin MC-3 receptor. Following the procedures described, representative compounds of the present invention were tested for binding in the MC-4 and/or MC-3 assay, as listed in Table 4.

In a further test the test system is Hippocampal Cells. Kind of test: Neurite Cell Outgrowth Assay, hippocampal cells. It is filed as cell-based. To be noted: Rattus norvegicus; 50 nM; percent change over the vehicle response; NA = no change/not active.
Excerpt: as §1, §2, §3

T1 sequence (P32245 whole entry): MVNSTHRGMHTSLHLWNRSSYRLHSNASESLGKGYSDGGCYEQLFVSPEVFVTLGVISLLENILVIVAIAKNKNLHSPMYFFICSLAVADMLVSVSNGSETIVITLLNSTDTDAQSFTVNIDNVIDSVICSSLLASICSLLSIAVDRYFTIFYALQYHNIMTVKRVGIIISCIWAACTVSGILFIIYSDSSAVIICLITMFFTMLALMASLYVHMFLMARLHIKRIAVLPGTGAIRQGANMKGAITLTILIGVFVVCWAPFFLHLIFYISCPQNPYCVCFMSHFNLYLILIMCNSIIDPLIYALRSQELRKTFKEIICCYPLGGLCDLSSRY

Regarding `COc1ccccc1Nc1nc(-c2ccccc2)[n+](-c2ccc(C)cc2)s1` [Compound 3], the activation at 0.05 µM in the test with Cortical Cells was 23%; in the test on Hippocampal Cells it was 17%. Besides, the IC50 in test [1] amounted to 0.7 µM; in test [2], 159 nM.

For the compound `Cc1ccc(Nc2nc(-c3ccccc3)[n+](-c3ccc(C)cc3)s2)cc1` [Compound 4], the activation at 0.05 µM with Cortical Cells came to 21%; with Hippocampal Cells, 20%. For the same compound, the “IC50 MC-4 (μM) (Filtration)” value in test [1] is “inactive”. Also, in test [2], the IC50 turned out to be 297 nM.

Consider `Cc1ccc(-[n+]2sc(Nc3ccccc3C)nc2-c2ccccc2)cc1` [Compound 5], for which the activation at 0.05 µM in the test with Cortical Cells was determined as 9%; in the test with Hippocampal Cells, 28%. For the same compound, the figures for the IC50 in test [1] and in test [2] were 1.3 µM and 207 nM, respectively.

`Cc1ccc(-[n+]2sc(Nc3ccc(Cl)cc3)nc2-c2ccccc2)cc1` [Compound 6]: the activation at 0.05 µM with Cortical Cells was 24%; in the test on Hippocampal Cells it was 23%. Besides, the results for the IC50 in test [1] and in test [2] were 2.5 µM and 293 nM, respectively.

Consider `COc1ccccc1Nc1nc(-c2ccccc2)[n+](-c2ccccc2C)s1` [Compound 10], for which the activation at 0.05 µM with Cortical Cells was determined as 11%; in the test with Hippocampal Cells it was 7%. The IC50 was 2.3 µM in test [1] and 130 nM in test [2].

With `Cc1ccc(Nc2nc(-c3ccccc3)[n+](-c3ccccc3C)s2)cc1` [Compound 11], the activation at 0.05 µM in the test with Cortical Cells amounted to 10%; in the test on Hippocampal Cells it was 9%. The results for the IC50 in test [1] and in test [2] were 2.4 µM and 243 nM, respectively.

Turning to `Cc1ccccc1Nc1nc(-c2ccccc2)[n+](-c2ccccc2C)s1` [Compound 12], the activation at 0.05 µM in the test on Cortical Cells is 20%; in the test on Hippocampal Cells, 28%. In addition, the “IC50 MC-4 (μM) (Filtration)” value in test [1] is reported as “insoluble”. Besides, in test [2], the “IC50 MC-4 (nM) (SPA)” value is reported as “insoluble”.

Turning to `Cc1ccccc1-[n+]1sc(Nc2ccc(Cl)cc2)nc1-c1ccccc1` [Compound 13], the activation at 0.05 µM was 32% in the test with Cortical Cells and 29% in the test on Hippocampal Cells. Also, the IC50 in test [1] is 3.4 µM; in test [2], 347 nM.

Turning to `Cc1ccccc1-[n+]1sc(Nc2ccccc2Cl)nc1-c1ccccc1` [Compound 14], the figures for the activation at 0.05 µM with Cortical Cells and in the test with Hippocampal Cells were 19% and 30%, respectively. Moreover, the IC50 was 5.6 µM in test [1] and 234 nM in test [2].

Regarding `Clc1ccc(-[n+]2sc(Nc3ccccc3)nc2-c2ccccc2)cc1` [Compound 15], the activation at 0.05 µM worked out at 31% in the test on Cortical Cells and 18% with Hippocampal Cells. For the same compound, the values for the IC50 in test [1] and in test [2] were 4.5 µM and 482 nM, respectively.

Consider `COc1ccc(Nc2nc(-c3ccccc3)[n+](-c3ccc(Cl)cc3)s2)cc1` [Compound 16], for which the activation at 0.05 µM in the test on Cortical Cells stood at 18%; with Hippocampal Cells, 8%. The IC50 in test [1] amounted to 4.3 µM; in test [2] it was 424 nM.

Regarding `COc1ccccc1Nc1nc(-c2ccccc2)[n+](-c2ccc(Cl)cc2)s1` [Compound 17], the values for the activation at 0.05 µM with Cortical Cells and in the test with Hippocampal Cells were 17% and 8%, respectively. Also, the values for the IC50 in test [1] and in test [2] were 7.7 µM and 351 nM, respectively.

For the compound `Cc1ccc(Nc2nc(-c3ccccc3)[n+](-c3ccc(Cl)cc3)s2)cc1` [Compound 18], the activation at 0.05 µM in the test on Cortical Cells and in the test with Hippocampal Cells was 17% in each case. Also, the IC50 worked out at 6 µM in test [1] and 463 nM in test [2].

In the case of `Clc1ccc(-[n+]2sc(Nc3ccccc3Cl)nc2-c2ccccc2)cc1` [Compound 21], the activation at 0.05 µM worked out at 2% with Cortical Cells and 27% in the test with Hippocampal Cells. The values for the IC50 in test [1] and in test [2] were 7.8 µM and 392 nM, respectively.

Take `Cc1ccc(-n2s/c(=N/c3ccccc3)nc2-c2ccccc2)cc1` [Compound 82]: the activation at 0.05 µM in the test with Cortical Cells was determined as 15%; in the test on Hippocampal Cells, 14%. In addition, the IC50 stood at 1.5 µM in test [1] and 826 nM in test [2].

For the compound `COc1ccc(/N=c2\nc(-c3ccccc3)n(-c3ccc(C)cc3)s2)cc1` [Compound 83], the activation at 0.05 µM amounted to 9% in the test on Cortical Cells and 11% in the test with Hippocampal Cells. Also, the IC50 turned out to be 1.9 µM in test [1] and 833 nM in test [2].
